Test results published in ChEMBL document CHEMBL4311942, “Design of Trp-Rich Dodecapeptides with Broad-Spectrum Antimicrobial Potency and Membrane-Disruptive Mechanism” (J Med Chem, 2019).
In brackets after ≈: the same amount, converted by molar mass. Activity calls are given as the source filed them. The calls are words filed in the database; no cut-off is given here. Where a SMILES comes first, the peptide text is derived from it.

Legend:
Staphylococcus aureus [1] = experiment: Antibacterial activity against Staphylococcus aureus ATCC 29213 incubated for 18 to 24 hrs by broth microdilution method; format: functional
Staphylococcus aureus [2] = experiment: Antibacterial activity against Staphylococcus aureus ATCC 29213 in presence of ZnCl2 by broth microdilution method; format: functional
Staphylococcus aureus [3] = experiment: Antibacterial activity against Staphylococcus aureus ATCC 29213 in presence of NH4Cl by broth microdilution method; format: functional
Escherichia coli [4] = experiment: Antibacterial activity against Escherichia coli ATCC 25922 in presence of MgCl2 by broth microdilution method; format: functional
Erythrocyte = experiment: Haemolytic activity in human erythrocytes assessed as lowest concentration causing 5% hemolysis after 1 hr; format: ADME, cell-based
Staphylococcus aureus [5] = experiment: Antibacterial activity against Staphylococcus aureus ATCC 29213 in presence of H202 by broth microdilution method; format: functional
Staphylococcus aureus [6] = experiment: Antibacterial activity against Staphylococcus aureus ATCC 29213 incubated for 2 hrs in presence of sodium phosphate buffer at pH 10 by broth microdilution method; format: functional; conditions: ATCC 29213, 2 h
Escherichia coli [7] = experiment: Antibacterial activity against Escherichia coli ATCC 25922 in presence of CaCl2 by broth microdilution method; format: functional
Staphylococcus aureus [8] = experiment: Antibacterial activity against Staphylococcus aureus ATCC 29213 in presence of 25% serum by broth microdilution method; format: functional
Escherichia coli [9] = experiment: Antibacterial activity against Escherichia coli ATCC 25922 incubated for 2 hrs in presence of sodium phosphate buffer at pH 2 by broth microdilution method; format: functional; conditions: ATCC 25922, 2 h
Staphylococcus aureus [10] = experiment: Antibacterial activity against Staphylococcus aureus ATCC 29213 in presence of KCl by broth microdilution method; format: functional
Escherichia coli [11] = experiment: Antibacterial activity against Escherichia coli ATCC 25922 incubated for 18 to 24 hrs by broth microdilution method; format: functional
Escherichia coli [12] = experiment: Antibacterial activity against Escherichia coli ATCC 25922 in presence of 50% serum by broth microdilution method; format: functional
Escherichia coli [13] = experiment: Antibacterial activity against Escherichia coli ATCC 25922 in presence of 25% serum by broth microdilution method; format: functional
Staphylococcus aureus [14] = experiment: Antibacterial activity against Staphylococcus aureus ATCC 29213 using preheated compound at 100 degreeC for 1 hr by broth microdilution method; format: functional; conditions: ATCC 29213, 1 h
Escherichia coli [15] = experiment: Antibacterial activity against Escherichia coli ATCC 25922 incubated for 2 hrs in presence of sodium phosphate buffer at pH 12 by broth microdilution method; format: functional; conditions: ATCC 25922, 2 h
Escherichia coli [16] = experiment: Antibacterial activity against Escherichia coli ATCC 25922 in presence of KCl by broth microdilution method; format: functional
Escherichia coli [17] = experiment: Antibacterial activity against Escherichia coli ATCC 25922 incubated for 2 hrs in presence of sodium phosphate buffer at pH 10 by broth microdilution method; format: functional; conditions: ATCC 25922, 2 h
Staphylococcus aureus [18] = experiment: Antibacterial activity against Staphylococcus aureus ATCC 29213 incubated for 2 hrs in presence of sodium phosphate buffer at pH 4 by broth microdilution method; format: functional; conditions: ATCC 29213, 2 h
Escherichia coli [19] = experiment: Antibacterial activity against Escherichia coli ATCC 25922 incubated for 2 hrs in presence of sodium phosphate buffer at pH 4 by broth microdilution method; format: functional; conditions: ATCC 25922, 2 h
Staphylococcus aureus [20] = experiment: Antibacterial activity against Staphylococcus aureus ATCC 29213 in presence of 50% serum by broth microdilution method; format: functional
Staphylococcus aureus [21] = experiment: Antibacterial activity against Staphylococcus aureus ATCC 29213 in presence of NaCl by broth microdilution method; format: functional
Staphylococcus aureus [22] = experiment: Antibacterial activity against Staphylococcus aureus ATCC 25923 incubated for 18 to 24 hrs by broth microdilution method; format: functional
Staphylococcus aureus [23] = experiment: Antibacterial activity against Staphylococcus aureus ATCC 29213 incubated for 2 hrs in presence of sodium phosphate buffer at pH 2 by broth microdilution method; format: functional; conditions: ATCC 29213, 2 h
Staphylococcus aureus [24] = experiment: Antibacterial activity against Staphylococcus aureus ATCC 29213 in presence of CaCl2 by broth microdilution method; format: functional
Salmonella typhimurium = experiment: Antibacterial activity against Salmonella enterica serovar typhimurium C77-31 incubated for 18 to 24 hrs by broth microdilution method; format: functional, Salmonella enterica subsp. enterica serovar Typhimurium
Escherichia coli [25] = experiment: Antibacterial activity against Escherichia coli ATCC 25922 in presence of NaBH4 by broth microdilution method; format: functional
Escherichia coli [26] = experiment: Antibacterial activity against Escherichia coli ATCC 25922 using preheated compound at 100 degreeC for 1 hr by broth microdilution method; format: functional; conditions: ATCC 25922, 1 h
Escherichia coli [27] = experiment: Antibacterial activity against Escherichia coli ATCC 25922 in presence of NH4Cl by broth microdilution method; format: functional
Staphylococcus aureus [28] = experiment: Antibacterial activity against Staphylococcus aureus ATCC 29213 incubated for 2 hrs in presence of sodium phosphate buffer at pH 12 by broth microdilution method; format: functional; conditions: ATCC 29213, 2 h
Escherichia coli [29] = experiment: Antibacterial activity against Escherichia coli ATCC 25922 in presence of FeCl3 by broth microdilution method; format: functional
[30] = system: Staphylococcus epidermidis; experiment: Antibacterial activity against Staphylococcus epidermidis ATCC 12228 incubated for 18 to 24 hrs by broth microdilution method; format: functional
Staphylococcus aureus [31] = experiment: Antibacterial activity against Staphylococcus aureus ATCC 29213 in presence of 12.5% serum by broth microdilution method; format: functional
Staphylococcus aureus [32] = experiment: Antibacterial activity against Staphylococcus aureus ATCC 29213 in presence of FeCl3 by broth microdilution method; format: functional
Escherichia coli [33] = experiment: Antibacterial activity against Escherichia coli UB1005 incubated for 18 to 24 hrs by broth microdilution method; format: functional
Escherichia coli [34] = experiment: Antibacterial activity against Escherichia coli ATCC 25922 in presence of 12.5% serum by broth microdilution method; format: functional
Escherichia coli [35] = experiment: Antibacterial activity against Escherichia coli ATCC 25922 in presence of H202 by broth microdilution method; format: functional
Staphylococcus aureus [36] = experiment: Antibacterial activity against Staphylococcus aureus ATCC 29213 in presence of NaBH4 by broth microdilution method; format: functional
Escherichia coli [37] = experiment: Antibacterial activity against Escherichia coli ATCC 25922 in presence of ZnCl2 by broth microdilution method; format: functional
Staphylococcus aureus [38] = experiment: Antibacterial activity against Staphylococcus aureus ATCC 29213 in presence of MgCl2 by broth microdilution method; format: functional
Escherichia coli [39] = experiment: Antibacterial activity against Escherichia coli ATCC 25922 in presence of NaCl by broth microdilution method; format: functional
[40] = Cytotoxicity against mouse RAW264.7 cells assessed as cell survival at <= 32 uM after 24 hrs by MTT assay relative to control; format: cell-based; conditions: RAW264.7 cells, up to 32 µM, read-out: Activity
[41] = Therapeutic index, ratio of MHC for human RBC to geometric mean of peptide MIC for Escherichia coli ATCC 25922; format: toxicity; conditions: pooled result: one value given for 6 cell lines, strains, targets or settings, read-out: TI
Escherichia coli [42] = experiment: Resistance index, ratio of MIC for antibacterial activity against Escherichia coli ATCC 25922 treated over 35 serial passage by sequential passaging method to MIC for antibacterial activity against Escherichia coli ATCC 25922 incubated for 18 to 24 hrs by broth microdilution method; format: functional
Escherichia coli [43] = experiment: Induction of cytoplasmic membrane depolarization in Escherichia coli UB1005 at 2 uM by DiSC3-5 dye based fluorescence method; format: organism-based
Pseudomonas aeruginosa = experiment: Antibacterial activity against Pseudomonas aeruginosa PAO1 at sub-MIC treated over 35 serial passages by resistant development assay; format: functional, organism-based
Acinetobacter baumannii [44] = experiment: Antibacterial activity against Acinetobacter baumannii AB1902 clinical isolate incubated for 18 to 24 hrs by broth microdilution method; format: functional
Lipopolysaccharide (LPS) = experiment: Displacement of BODIPY-TR-cadaverine from Escherichia coli O111:B4 LPS by spectrofluorophotometric method
Escherichia coli [45] = experiment: Inhibition of swimming motility of Escherichia coli ATCC 25922 at 1 to 4 uM after 16 hrs; format: functional, organism-based
Escherichia coli [46] = experiment: Induction of outer membrane permeabilization in Escherichia coli UB1005 assessed as increase in NPN uptake at 0.5 to 4 uM by spectrofluorophotometric assay; format: organism-based
Acinetobacter baumannii [47] = experiment: Antibacterial activity against Acinetobacter baumannii AB1901 clinical isolate incubated for 18 to 24 hrs by broth microdilution method; format: functional

## CC(C)C[C@H](NC(=O)[C@H](CCCNC(=N)N)NC(=O)[C@H](CCCCN)NC(=O)[C@H](CCCNC(=N)N)NC(=O)[C@@H](NC(=O)[C@H](CCCCN)NC(=O)[C@H](CCCCN)NC(=O)[C@H](CCCNC(=N)N)NC(=O)[C@H](CC(C)C)NC(=O)[C@H](CCCNC(=N)N)NC(=O)[C@@H](N)CCCNC(=N)N)[C@@H](C)O)C(=O)N[C@@H](CCCCN)C(N)=O (H-RRLRKKTRKRLK-NH2)
Staphylococcus aureus [1]
  MIC: > 128 µM
Staphylococcus aureus [2]
  MIC: > 128 µM
Staphylococcus aureus [3]
  MIC: > 128 µM
Escherichia coli [4]
  MIC: > 128 µM
Erythrocyte
  MHC: > 128 µM
Staphylococcus aureus [5]
  MIC: > 128 µM
Staphylococcus aureus [6]
  MIC: > 128 µM
Escherichia coli [7]
  MIC: > 128 µM
Staphylococcus aureus [8]
  MIC: > 128 µM
Escherichia coli [9]
  MIC: > 128 µM
Staphylococcus aureus [10]
  MIC: > 128 µM
Escherichia coli [11]
  MIC: > 128 µM
Escherichia coli [12]
  MIC: > 128 µM
Escherichia coli [13]
  MIC: > 128 µM
Staphylococcus aureus [14]
  MIC: > 128 µM
Escherichia coli [15]
  MIC: > 128 µM
Escherichia coli [16]
  MIC: > 128 µM
Escherichia coli [17]
  MIC: > 128 µM
Staphylococcus aureus [18]
  MIC: > 128 µM
Escherichia coli [19]
  MIC: > 128 µM
Staphylococcus aureus [20]
  MIC: > 128 µM
Staphylococcus aureus [21]
  MIC: > 128 µM
Staphylococcus aureus [22]
  MIC: > 128 µM
Staphylococcus aureus [23]
  MIC: > 128 µM
Staphylococcus aureus [24]
  MIC: > 128 µM
Salmonella typhimurium
  MIC: > 128 µM
Escherichia coli [25]
  MIC: > 128 µM
Escherichia coli [26]
  MIC: > 128 µM
Escherichia coli [27]
  MIC: > 128 µM
Staphylococcus aureus [28]
  MIC: > 128 µM
Escherichia coli [29]
  MIC: > 128 µM
[30]
  MIC: > 128 µM
Staphylococcus aureus [31]
  MIC: > 128 µM
Staphylococcus aureus [32]
  MIC: > 128 µM
Escherichia coli [33]
  MIC: 64 µM (≈ 105 µg/mL)
Escherichia coli [34]
  MIC: > 128 µM
Escherichia coli [35]
  MIC: > 128 µM
Staphylococcus aureus [36]
  MIC: > 128 µM
Escherichia coli [37]
  MIC: > 128 µM
Staphylococcus aureus [38]
  MIC: > 128 µM
Escherichia coli [39]
  MIC: > 128 µM
[40]
  viability at 24 h: ≥ 70%
[41]
  selectivity ratio: 1.26

## CC[C@H](C)[C@H](NC(=O)CN)C(=O)NCC(=O)N[C@@H](C)C(=O)N[C@H](C(=O)N[C@@H](CC(C)C)C(=O)N[C@@H](CCCCN)C(=O)N[C@H](C(=O)N[C@@H](CC(C)C)C(=O)N[C@H](C(=O)N[C@H](C(=O)NCC(=O)N[C@@H](CC(C)C)C(=O)N1CCC[C@H]1C(=O)N[C@@H](C)C(=O)N[C@@H](CC(C)C)C(=O)N[C@H](C(=O)N[C@@H](CO)C(=O)N[C@@H](Cc1c[nH]c2ccccc12)C(=O)N[C@H](C(=O)N[C@@H](CCCCN)C(=O)N[C@@H](CCCNC(=N)N)C(=O)N[C@@H](CCCCN)C(=O)N[C@@H](CCCNC(=N)N)C(=O)N[C@@H](CCC(N)=O)C(=O)N[C@@H](CCC(N)=O)C(N)=O)[C@@H](C)CC)[C@@H](C)CC)[C@@H](C)O)[C@@H](C)O)C(C)C)C(C)C [MELITTIN]
Erythrocyte
  MHC: 0.25 µM
Escherichia coli [42]
  Ratio: 4
Escherichia coli [43]
  Activity: Active
Pseudomonas aeruginosa
  Activity: inactive
Acinetobacter baumannii [44]
  MIC: 2 µM (≈ 5.69 µg/mL)
Lipopolysaccharide (LPS)
  Activity: Dose-dependent effect
Escherichia coli [45]
  inhibition: Active
Escherichia coli [46]
  Activity: Active
Acinetobacter baumannii [47]
  MIC: 2 µM (≈ 5.69 µg/mL)
